Like-named read-outs stand apart in the source and are kept apart here.
How the values were obtained:
HIV-1 strain HTLVIIIB = assay: anti-HIV activity: inhibition of replication of HIV-1 strain HTLVIIIB in PBMC; format: cell-based; details: for inhibition at 1 µM: at concentrations ≧1 μM; for IC50: read-out: IC50 [HTLVHIB]
cytotoxicity (CC50) = format: cell-based; details: CC50 values
[1] = biological target: purified recombinant HIV RT (Human immunodeficiency virus type 1 group M subtype B, UniProt P03366); assay: biochemical
[2] = Human immunodeficiency virus 1, PBMC
[3] = Human immunodeficiency virus 1, peripheral blood mononuclear cells (PBMC) from healthy volunteer donors

Row | Compound | inhibition at 1 µM (HIV-1 strain HTLVIIIB; [2]) | IC50 (HIV-1 strain HTLVIIIB; [3]) | CC (cytotoxicity (CC50)) | IC50 [1] | melting point | IC50 (HIV-1 strain HTLVIIIB; [2])
1 | S=C(NCCOc1ccccc1)Nc1ccccn1 [II, N-[2-(Phenoxy)ethyl]-N′-[2-(pyridyl)]thiourea] | 100% | 5 nM | 55 µM | 10100 nM | – | –
2 | S=C(NCCOc1ccccc1)Nc1ccc(Br)cn1 [IV, N-[2-(Phenoxy)ethyl]-N′-[2-(5-bromopyridyl)]thiourea] | 100% | 5 nM | 92 µM | 1500 nM | 162 to 163 °C | –
3 | S=C(NCCOc1ccccc1)Nc1ccc(Cl)cn1 [III, N -[2-(Phenoxy)ethyl]-N′-[2-(5-chloropyridyl)]thiourea] | 100% | 4 nM | >100 µM | 1500 nM | – | –
4 | S=C(NCCc1ccc(Cl)cc1)Nc1ccc(Br)cn1 [V, reference compound] | – | – | – | 2500 nM | – | –
5 | Oc1ccc(CCNC(=S)Nc2ccc(Br)cn2)cc1 [VII, reference compound] | – | – | >100 µM | 87700 nM | – | 3070 nM

Reference: patent publication US6727265B2, “Phenoxyethyl-thiourea-pyridine compounds and their use for treatment of HIV-infections” (Parker Hughes Institute, priority 2000, dated 2004)
